Where “and” joins values, the source holds several entries; their conditions need not be identical. Equal entries are not always repeated.
Tested on: Phakopsora pachyrhizi
Test: Phakopsora test (soya bean)
Format: in vivo
Conditions: sprayed 1 day before inoculation, evaluation 11 days after inoculation
Description: The suitable active compound preparations used are commercial formulations which, if required, are diluted to the desired concentration prior to application.
Soya bean plants (cv. Miyagishirome) are cultivated in a plastic vessel having a diameter of 7.5 cm for 14 days, until they have reached the ⅔-leaf stage. The active compound preparations were, at the concentrations stated below, sprayed onto the test plants (6 ml for in each case 3 test vessels, the test solution contains 0.02% of Neoesterin as tackifier).
1 day after the application of the active compound preparation, the plants were sprayed with a urediniospore suspension (1×10^5 urediniospores/ml) of the rust pathogen Phakopsora pachyrhizi. The plants are then placed in a greenhouse at about 25° C. during the day and about 18° C. at night and a relative atmospheric humidity of 91.9%.
Evaluation is carried out 11 days after the inoculation by comparison of the infected areas of untreated and treated plants. 0% means an efficacy which corresponds to that of the control, whereas an efficacy of 100% means that no infection is observed.

Row | SMILES | Efficacy in % found (application rate 0.5 ppm) | Efficacy in % found (application rate 5 ppm)
1 | O=C(O)CNCP(=O)(O)O [(1-1) glyphosate, glyphosate] | 0% | 0%
2 | CP(=O)(O)CCC(N)C(=O)O (centres unmarked) [(1-2) glufosinate, glufosinate] | 0% | 0%
3 | CC(C)(C)C(O)(CCc1ccc(Cl)cc1)Cn1cncn1 (centres unmarked) [(3-17) tebuconazole, tebuconazole] | 60% and 50% | 
